Experimental data published in US11214556B1, “Method of treating colorectal cancer” (King Abdulaziz University, priority 2019, dated 2022).

Columns and labels:
[1] = tested on: Swiss albino mice; assay: Acute oral toxicity (LD50), OECD guideline 423; format: in vivo; settings: oral, mice
From the text: Since compounds with electrophilic properties, e.g., MA are usually involved in a variety of toxic effects on mammalians, the general acute toxicity of 1512, 3712 and 4112 was investigated by determining the in vivo lethal dose (LD50) according to the Globally Harmonized Classification System (GHS) and following the Organization for Economic Cooperation and Development (OECD) guideline 423 (modified, adopted Mar. 23, 2006). As observed in the cellular assay, the compound safety was confirmed, as the LD50 for all compounds were between 2000-5000 mg/kg (Category 5). See Spielmann, H.; Genschow, E.; Liebsch, M.; Halle, W., Determination of the starting dose for acute oral toxicity (LD50) testing in the up and down procedure (UDP) from cytotoxicity data. ATLA 1999, 27 (6), 957-966, incorporated herein by reference in its entirety.
The experiment was conducted on 12 healthy Swiss albino mice (males and females) weighing 22-27 g and aged 8 to 10 weeks obtained from the Animal Station, Pharmacology Dept, Faculty of Pharmacy, King Abdulaziz University, Jeddah. See Shoieb, S. M.; Esmat, A.; Khalifa, A. E.; Abdel-Naim, A. B., Chrysin attenuates testosterone-induced benign prostate hyperplasia in rats. Food and Chemical Toxicology 2018, 111, 650-659, incorporated herein by reference in its entirety. All animals were kept at the regulated temperature (average 23° C.), air quality (Central air conditioning) and light (12-h light/dark cycles). Animals were provided free access to food pellets ad libitum and water. The experimental procedure was approved by the Research Ethics Committee, Faculty of Pharmacy, King Abdulaziz University prior to starting the laboratory work. Animals were humanely treated according to international and scientific principles. Changes other than vitality of the animals such as behavioral and food consumption habits were not observed in this study.
The compounds 1512, 3712 and 4112 of purity 95% or more (LC/MS) were prepared for this study as 10% suspension in water containing 0.5% tween 80.
The animals were distributed randomly into four groups (3 mice at each group). […] The second group received an oral dose of 2000 mg/Kg of the drug and observed after 24 h to count the deceased animals. According to the Guideline 423, when all animals were found alive, the same test was repeated (dose 2000 mg/kg) were given to the third group (3 animals) and observed for 24 h. All animals survived and therefore, a dose of 5000 mg/kg were administered to the fourth and final group.

[2] = tested on: CACO-2 cells; assay: SRB cytotoxicity assay, CACO-2; format: cell-based, human; settings: 72 h exposure, ± SEM
Summary of the method: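 Cells seeded at 5000/well, grown 24 h, then exposed 72 h at 37 °C to 0.01–100 μM compound or 1% DMSO in RPMI1640 with 10% FBS. TCA-fixed, SRB-stained, OD read at 510 nm; viability expressed relative to untreated control cells.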

CCCNC(=O)/C(=C/c1c[nH]c2ccccc12)NC(=O)/C=C/c1cccs1 [Compound 4112, (Z)-3-(1H-indol-3-yl)-N-propyl-2-[(E)-3-(thien-2-yl)acrylamidolacry]amide]
GHS acute toxicity category [1]: Category 5 | IC50 [2]: 890 ± 40 nM
